Experiments:
Type in all cases: cell-based, Human enterovirus D68
[1] = tested on: EV-D68 strain USA-MO/18947; test: CPE inhibition assay in RD cells; details: Enterovirus D, EVD68, 120 h; RD cells, 100 CCID50 virus, 33° C., five days, strain USA-MO/18947; read-out: Mean EC50 ± SD
[2] = tested on: EV-D68 strain USA-MO/18949; test: CPE inhibition assay in RD cells; details: Enterovirus D, EVD68, 120 h; RD cells, 100 CCID50 virus, 33° C., five days, strain USA-MO/18949; read-out: Mean EC50 ± SD
[3] = tested on: EV-D68 strain USA-IL/18956; test: CPE inhibition assay in RD cells; details: Enterovirus D, EVD68, 120 h; RD cells, 100 CCID50 virus, 33° C., five days, strain USA-IL/18956; read-out: Mean EC50 ± SD
[4] = tested on: EV-D68 1962 prototype strain (Fermon); test: CPE inhibition assay in RD cells; details: Enterovirus D, EVD68, 120 h; RD cells, 100 CCID50 virus, 33° C., five days, strain Fermon; read-out: Mean EC50 ± SD
[5] = tested on: four EV-D68 strains; test: microbe, parasite or virus in culture; details: RD cells
[6] = tested on: EV-D68 strain USA-MO/18947; test: CPE inhibition assay repeated in HeLa H1 cells; details: Enterovirus D, EVD68
[7] = tested on: EV-D68 strain USA-MO/18949; test: CPE inhibition assay repeated in HeLa H1 cells; details: Enterovirus D, EVD68
[8] = tested on: EV-D68 strain USA-IL/18956; test: CPE inhibition assay repeated in HeLa H1 cells; details: Enterovirus D, EVD68
[9] = tested on: EV-D68 strain Fermon; test: CPE inhibition assay repeated in HeLa H1 cells; details: Enterovirus D, EVD68
[10] = tested on: four EV-D68 strains; test: CPE inhibition assay in HeLa H1 cells, text summaries over the strains; details: Enterovirus D, EVD68, all four strains, read-out: EC50 values, range over all four strains in HeLa H1 cells
[11] = tested on: EV-D68 Fermon strain; test: CPE inhibition assay over a range of virus doses; details: Enterovirus D, EVD68; 100-fold virus dose range; strain not given; read-out: EC50 variation over a range of virus doses
Method: Antiviral activity was assessed in a homogeneous cell-based assay that measured inhibition of viral cytopathic effect in human rhabdomyosarcoma cells (RD; ATCC CCL-136). The viruses included three representative EV-D68 strains from the 2014 outbreak (USA-MO/18947, USA-MO/18949, USA-IL/18956) (Brown et al. 2014. Seven Strains of Enterovirus D68 Detected in the United States during the 2014 Severe Respiratory Disease Outbreak. Genome Announc 2:e01201-01214), as well as the 1962 prototype strain (Fermon) (Schieble et al. 1967. A probable new human picornavirus associated with respiratory diseases. Am J Epidemiol 85:297-310). For the CPE inhibition assay, half-log10 dilutions of drug compound (10 μM to 0.001 μM) were combined with 100 CCID50 (50% cell culture infectious dose) of virus and added to monolayers of RD cells (5000 cells per well) in 384-well, white, flat-bottom microplates. Plates were incubated at 33° C. and 5% CO2 for five days, and cell viability was assessed using ATPLite® (Perkin Elmer, Waltham, Mass.) by adding 15 μL of cell lysis buffer and then 15 μL of substrate solution, following the manufacturer's recommendations.
In both studies, the methods were somewhat different from our approach. […] For the other compounds tested, similar EC50 values were observed across this same dose range. […]

For `Cc1cc(CCCOc2c(C)cc(-c3noc(C(F)(F)F)n3)cc2C)on1` [Pleconaril, pleconaril], the EC50 [1] was 4440 ± 550 nM, the EC50 [2] was 6090 ± 260 nM and the EC50 [3] was 6110 ± 1050 nM. For the same molecule, the EC50 [4] was 380 ± 10 nM, the “concentrations at which activity against the 2014 strains was detected” value ([5]; 2014 strains) was “greater than 4 μM” and the “EC50 against the 2014 strains relative to the Fermon strain” value ([5]; higher against 2014 strains) was “about 10 fold”. For the same molecule, the EC50 [6] was 131 nM, the EC50 [7] was 358 nM and the EC50 [8] was 321 nM. For the same molecule, the EC50 [9] was 360 nM, the EC50 [10] was 130 to 360 nM and the EC50 [11] was 300 to 500 nM.

Source: patent US10328128B2, “Treatment of infection by human enterovirus D68” (priority 2014, dated 2019)
